The test system of assay [1] is genioglossus muscle. The experiment in a line: Electromyographic activity of the genioglossus muscle in narcotized rats. It is filed as in vivo, rat. The protocol: (§1) E) Investigation of the Effect on the Electromyographic Activity of the Genioglossus Muscle and the Respiratory Minute Volume in Rats
(§2) The compound of example 1 (R-enantiomer) and of example 2 was investigated for electromyographic activity of the genioglossus muscle and for respiration-stimulating effect on male urethane-chloralose-narcotized, vagotomized rats with a weight of from 250 to 300 g. For this purpose, the genioglossus EMG activity was measured by means of EMG electrodes. The respiration-stimulating effect was investigated by measuring the respiratory minute volume by means of a tracheal cannula. For the investigations, the rats were administered intravenously successively with 1, 3 and 10 mg/kg of the compound of example 1 (R-enantiomer) and of example 2, with glycofurol (50%) as the vehicle, at 15 minute intervals. CO2 was used as the positive control for the stimulation of the genioglossus activity and of the respiratory minute volume.

The target of assay [2] is T1, TASK1 (mouse) (Mus musculus, UniProt O35111).
T1 construct: expressed in transfected cells; host or cells: Xenopus laevis oocytes injected with in vitro synthesized RNA
T1 sequence (O35111 whole entry): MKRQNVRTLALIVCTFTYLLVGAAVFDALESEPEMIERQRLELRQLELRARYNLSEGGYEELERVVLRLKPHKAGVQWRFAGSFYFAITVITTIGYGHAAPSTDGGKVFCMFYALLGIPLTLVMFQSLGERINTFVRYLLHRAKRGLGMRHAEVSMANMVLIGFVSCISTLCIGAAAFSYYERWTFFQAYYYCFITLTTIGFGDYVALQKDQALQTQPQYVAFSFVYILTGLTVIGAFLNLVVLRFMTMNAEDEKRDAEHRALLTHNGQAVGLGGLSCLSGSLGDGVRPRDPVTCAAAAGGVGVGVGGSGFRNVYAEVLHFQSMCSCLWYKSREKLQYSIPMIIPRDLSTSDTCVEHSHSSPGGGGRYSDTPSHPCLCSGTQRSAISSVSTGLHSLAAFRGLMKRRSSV
The experiment in a line: Activity on the TASK-1 channel in Xenopus oocytes (two-microelectrode voltage clamp), mouse channel. It is filed as cell-based. The settings on record: mouse TASK-1 expressed in Xenopus oocytes, voltage jumps to 40 mV, pH 7.4, room temperature; read-out: IC50 (μmol) TASK1 (mouse). How it is done:
(§3) A) Determination of the Activity on the TASK-1 Channel in Xenopus Oocytes
(§4) Mouse or human TASK-1 channels were expressed in Xenopus oocytes. For this purpose, oocytes were first isolated from Xenopus levis and defolliculated. Subsequently, TASK-1-encoding RNA synthesized in vitro was injected into these oocytes. After two days of TASK-1 protein expression, TASK-1 currents were measured on the oocytes with the two-microelectrode voltage clamp technique. In this measurement, the TASK-1 channels were generally activated with voltage jumps lasting 250 ms to 40 mV. The bath was flushed with a solution of the following composition: NaCl 96 mM, KCl 2 mM, CaCl2 1.8 mM, MgCl2 1 mM, HEPES 5 mM (titrated to pH 7.4 with NaOH). These experiments were performed at room temperature. For data acquisition and analysis, the following were used: Geneclamp amplifier (Axon Instruments, Foster City, USA) and MacLab D/A converter and software (ADinstruments, Castle Hill, Australia). The inventive substances were tested by adding them to the bath solution in different concentrations. The effects of the substances were calculated as the percentage inhibition of the TASK-1 control current which was obtained when no substance was added to the solution. The data was subsequently fitted to the Hill equation in order to determine the half-maximum inhibitory concentrations (IC50 values) for the particular substances.

Assay [3] has as its target T2, TASK1 (human) (Homo sapiens, UniProt O14649). The experiment in a line: Activity on the TASK-1 channel in Xenopus oocytes (two-microelectrode voltage clamp), human channel. It counts as cell-based. On the set-up: expressed in transfected cells; host or cells: Xenopus laevis oocytes injected with in vitro synthesized RNA. The settings on record: human TASK-1 expressed in Xenopus oocytes, voltage jumps to 40 mV, pH 7.4, room temperature; read-out: IC50 (μmol) TASK1 (human). How it is done:
as §3, §4

The target of assay [4] is T2, TASK1 (human). The experiment in a line: Activity on the TASK-1 channel with the FLIPR technique on CHO cells. It is filed as cell-based. On the set-up: expressed in transfected cells; host or cells: CHO cells. The settings on record: inhibition of human TASK-1 current, 10 μmol/l. An excerpt:
B) Determination of the Activity on the TASK-1 Channel with the FLIPR Technique

Assay [5] has as its system respiration. The experiment in a line: Respiratory minute volume in narcotized rats. It counts as in vivo, rat. How it is done: as §1, §2
In assay [6] the test system is TASK-1. The settings on record: cited from earlier work; for pIC50: stated in the literature, read-out: IC50 value, blocker of TASK-1; for Effect on the TASK-1 channel (in words): therapeutic concentrations, literature.

The source of these data is patent US20090149496A1, “INHIBITORS OF THE TASK-1 AND TASK-3 ION CHANNEL” (SANOFI-AVENTIS DEUTSCHLAND GMBH, priority 2006, published 2009).

pIC50: −log10 of the molar value. “And” between values parts separate entries of the source, which are not always exact repeats. Equal entries are not always repeated. Structures can show the parent of a compound that is named as a salt.

T2 sequence (O14649 whole entry): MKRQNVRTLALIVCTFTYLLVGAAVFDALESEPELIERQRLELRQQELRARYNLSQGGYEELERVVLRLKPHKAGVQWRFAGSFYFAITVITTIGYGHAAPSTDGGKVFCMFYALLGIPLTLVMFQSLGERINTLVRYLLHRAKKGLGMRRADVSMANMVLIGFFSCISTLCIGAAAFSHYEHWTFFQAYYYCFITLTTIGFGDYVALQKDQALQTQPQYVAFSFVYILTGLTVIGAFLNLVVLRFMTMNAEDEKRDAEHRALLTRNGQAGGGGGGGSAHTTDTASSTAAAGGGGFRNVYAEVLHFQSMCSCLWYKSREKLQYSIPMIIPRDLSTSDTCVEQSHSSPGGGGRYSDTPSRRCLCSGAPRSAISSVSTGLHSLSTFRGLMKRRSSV

Turning to `COc1ccc(CC(=O)NCc2ccccc2-c2ccccc2C(=O)NCCc2cccnc2)cc1` [Example 2, N-(2-pyridin-3-ylethyl)-2′-{[2-(4-methoxyphenyl)acetylamino]-methyl}biphenyl-2-carboxamide], the “EMG activity of the genioglossus muscle (mean)” value in assay [1] (1 mg/kg intravenously) was found to be 3.15 arbitrary units; in assay [1] (3 mg/kg intravenously) it was 3.55 arbitrary units; in assay [1] (10 mg/kg intravenously), 3.82 arbitrary units. For the same molecule, the “Effect on the electromyographic activity of the genioglossus muscle (in words)” value in assay [1] (summary of tables 2 and 4) is “stimulate”. Moreover, the results for the pIC50 in assay [2] and in assay [3] were 6.37 and 6.24, respectively. The molecule also showed an inhibition at 10 µM in assay [4] of 77%. Moreover, the “Respiratory minute volume (mean)” value was determined as 253 mL/min in assay [5] (1 mg/kg intravenously), 279 mL/min in assay [5] (3 mg/kg intravenously) and 291 mL/min in assay [5] (10 mg/kg intravenously). Also, in assay [5] (summary of tables 3 and 5), the “Effect on the respiratory minute volume (in words)” value was “stimulate”.

Turning to `COc1ccc(CC(=O)NCc2ccccc2-c2sccc2C(=O)NCc2ccc(F)cc2F)cc1` [Example 11, N-(2,4-Difluorobenzyl)-2-(2-{[2-(4-methoxyphenyl)acetyl-amino]methyl}phenyl)thiophene-3-carboxamide], in assay [2], the pIC50 is 6.46. For the same molecule, the inhibition at 10 µM in assay [4] is 88%.

As for `CCCCC/C=C\C/C=C\C/C=C\C/C=C\CCCC(=O)N[C@H](C)CO` [methanandamide], the pIC50 in assay [6] is 6.15.

Turning to `CCN1CC(CCN2CCOCC2)C(c2ccccc2)(c2ccccc2)C1=O` (stereo not shown) [doxapram], in assay [6], the pIC50 was 6.40.

For the molecule `C[C@H](OC(=O)NCc1ccccc1-c1cccnc1C(=O)NCCc1ccccn1)c1ccccc1` [Example 12, (S)-1-Phenylethyl {2-[2-(2-pyridin-2-ylethylcarbamoyl)pyridin-3-yl]benzyl}carbamate], the pIC50 in assay [2] was 5.47. The molecule also showed an inhibition at 10 µM in assay [4] of 73%.

`CN(CCc1ccccn1)C(=O)c1ccccc1-c1ccccc1CNC(=O)OCc1ccccc1` [Example 7, Benzyl {2′-[methyl-(2-pyridin-2-ylethyl)carbamoyl]biphenyl-2-ylmethyl}carbamate]: in assay [2], the pIC50 is 5.97. Besides, the inhibition at 10 µM in assay [4] amounted to 57%.

`COc1ccc(CC(=O)NCc2ccccc2-c2occc2C(=O)NCCC(C)C)cc1` [Example 10, N-(3-methylbutyl)-2-(2-{[2-(4-methoxyphenyl)acetyl-amino]methyl}phenyl)furan-3-carboxamide]: in assay [2], the pIC50 is 5.92. Also, the inhibition at 10 µM in assay [4] is 61%.

For `O=C=O` [CO2, reference compound], in assay [1] (5% CO2 positive control), the “EMG activity of the genioglossus muscle (mean)” value is 5.13 arbitrary units and 3.15 arbitrary units. The “Respiratory minute volume (mean)” value in assay [5] (5% CO2 positive control) is 237 mL/min and 209 mL/min.

Consider `COc1ccc(CC(=O)NCc2ccccc2-c2ccsc2C(=O)NCc2ccc(F)cc2F)cc1` [Example 8, N-(2,4-Difluorobenzyl)-3-(2-{[2-(4-methoxyphenyl)acetyl-amino]methyl}phenyl)thiophene-2-carboxamide], for which the pIC50 in assay [2] was 6.26. Moreover, in assay [4], 10 µM produced 77% inhibition.

`CCCCC/C=C\C/C=C\C/C=C\C/C=C\CCCC(=O)NCCO` [anandamide]: the negative logarithm of the IC50 (pIC50) in assay [6] is 6.15.

As to `CCCCS(=O)(=O)Nc1ccccc1C(=O)N[C@@H](CC)c1ccc(OC)nc1` [Example 1 (S-enantiomer), 2-(butyl-1-sulfonylamino)-N-[1(S)-(6-methoxypyridin-3-yl)propyl]benzamide], the pIC50 in assay [2] is 6.10. In addition, the inhibition at 10 µM in assay [4] was determined as 58%.

`COc1ccc(CC(=O)NCc2ccccc2-c2ccc(C(=O)NCc3ccc(F)cc3F)o2)cc1` [Example 9, N-(2,4-Difluorobenzyl)-5-(2-{[2-(4-methoxyphenyl)acetyl-amino]methyl}phenyl)furan-2-carboxamide]: the pIC50 in assay [2] was 5.63. The same molecule gave an inhibition at 10 µM in assay [4] of 60%.

As to `O=C(NCc1ccccc1-c1ncccc1C(=O)NCc1ccc(F)cc1F)OCc1ccccc1` [Example 14, Benzyl {2-[3-(2,4-Difluorobenzylcarbamoyl)pyridin-2-yl]benzyl}carbamate], the pIC50 in assay [2] is 5.54. In assay [4], this molecule yielded an inhibition at 10 µM of 50%.

Take `CC(C)CCNC(=O)c1cccc(-c2ccncc2CNC(=O)OCc2ccccc2)c1` [Example 15, Benzyl {4-[3-(3-methylbutylcarbamoyl)phenyl]pyridin-3-yl-methyl}carbamate]: in assay [2], the pIC50 was 5.74. The inhibition at 10 µM in assay [4] is 70%.

`COc1ccc(CCC(=O)NCc2ccccc2-c2cc(C(=O)NCCC(C)C)ccc2C)cc1` [Example 16, N-(3-Methylbutyl)-2′-{[3-(4-methoxyphenyl)propionylamino]methyl}-6-methylbiphenyl-3-carboxamide]: the pIC50 in assay [2] was 5.56.

Turning to `FC(F)(F)C(Cl)Br` (stereo not shown) [halothane], in assay [6], the “Effect on the TASK-1 channel (in words)” value is given as “activation”.

Consider `C[C@H](OC(=O)NCc1ccccc1-c1ccccc1C(=O)NC[C@@H](C)O)c1ccccc1` [Example 5, N-(2-(R)-hydroxypropyl)-2′-(α-(S)-methylbenzyloxycarbonyl-aminomethyl)biphenyl-2-carboxamide], for which the pIC50 in assay [2] was 5.68. In assay [4], this molecule displayed an inhibition at 10 µM of 88%.

For the molecule `CC[C@H](NC(=O)c1cc(OC)ccc1NS(=O)(=O)c1ccc(OC)cc1)c1ccccc1` [Example 4, (S)-5-Methoxy-2-(4-methoxybenzenesulfonylamino)-N-(1-phenylpropyl)benzamide], the pIC50 in assay [2] was 6.19.

Consider `CC[C@H](NC(=O)c1cc(F)ccc1NS(=O)(=O)c1cccc2cccnc12)c1ccccc1` [Example 3, (S)-5-Fluoro-2-(quinoline-8-sulfonylamino)-N-(1-phenylpropyl)benzamide sodium salt], for which the inhibition at 10 µM in assay [4] came to 82%.

On to `COc1ccc(CC(=O)NCc2ccccc2-c2cc(Cl)ccc2C(=O)NCc2ccc(F)cc2F)cc1` [Example 6, N-(2,4-Difluorobenzyl)-5-chloro-2′-{[2-(4-methoxyphenyl)acetyl-amino]methyl}biphenyl-2-carboxamide], for which the pIC50 in assay [2] was 5.94. The molecule also returned an inhibition at 10 µM in assay [4] of 68%.

As for `FC(F)OC(Cl)C(F)(F)F` (stereo not shown) [isoflurane], the “Effect on the TASK-1 channel (in words)” value in assay [6] was “activation”.
